Measurements as given in patent US6451972B1, “Peptido-mimetic compounds containing RGD sequence useful as integrin inhibitors” (Sigma-Tau Industrie Farmaceutiche Riunite S.p.A., priority 1998, dated 2002).

How the values were obtained:
M109 lung carcinoma = experiment: Antitumor and antimetastatic activity on M109 lung carcinoma-bearing Balb/c mice; assay type: in vivo; conditions: 200 μg/mouse (10 mg/kg) i.p. qdx9; lung metastases at day 16; untreated group 34
Description: Balb/c mice were injected i.m. with M109 lung carcinoma cells (3×10^5 cells/mouse) into the hind leg muscle.
Tumors were excised at day 10th after tumor implant. Mice were sacrificed at day 16th from tumor implant and lungs were removed. The number of lung metastases has been evaluated on tumor-excised mice (3 mice/group) using a dissecting microscope.
TVI % (tumor volume inhibition)=100−[(mean tumor weight of treated group/mean tumor weight of control group)×100]. Calculated on day 16th after tumor implant (just before mice sacrifice) on nonoperated mice.

[1] = system: bovine microvascular endothelial cells (BMEC) adhesion to Fibronectin; experiment: Adhesion inhibition of BMEC to fibronectin; assay type: cell-based
Description: (§1) Bovine microvascular endothelial cells (BMEC) were maintained in DMEM supplemented with 20% foetal calf serum, 50 units/ml heparin, 50 μg/ml bovine brain extract, 100 units/ml gentamycin.
(§2) BMEC were cultured on 1% gelatine-coated culture flasks and employed in experiments between passage 6-12.
(§3) Ninety-six-well plates (Falcon) were coated with either fibronectin or vitronectin (both at […] in phosphate buffered saline) overnight at 4° C. Cells were detached using EDTA (1 mM)/trypsine (0.25%) and resuspended in own medium described above. Approximately 40,000 cells/[…] were applied for each well and allowed to adhere for 60 min at 37° C. in presence of different amounts of RGD peptides. For all experiments the non-adherent cells were removed with PBS and the remaining cells were fixed with 4% paraformaldehyde for 10 min.
(§4) Cells were stained with 1% toluidine blue for 10 min and rinsed with water.
(§5) Stained cells were solubilized with 1% SDS and quantified on a microtiter plate reader at 600 nm.
(§6) Experiments described were performed in quadruplicate and repeated a minimum of three times. […]
The percentages of adhesion inhibition refer to 100 μM concentration of each peptide of and it's calculated by the following formula (control-sample/control×100) where control was RGD untreated sample. […] The t-test has been calculated, using the Mann Witney non parametric test, by the instat program. […]

[2] = system: murine lung carcinoma cells (M109) adhesion to Vitronectin; experiment: Adhesion assay on vitronectin, M109 cells; assay type: cell-based
Description: Murine lung carcinoma cells (M109) were purchased from American Type Collection Culture (ATCC) and maintained in RPMI supplemented with 10% foetal calf serum, 10 mM L-glutamine and 100 units/ ml gentamicin.
as §3, §4, §5, §6
(§7) The percentages of adhesion inhibition refer to 1.5 μM concentration of each peptide and were calculated by the following formula (control-sample/control×100) where control was RGD untreated sample.
The t-test has been calculated using the Mann Witney non parametric test, by the instat program. […]

[3] = system: human prostate carcinoma cells (PC3) adhesion to Vitronectin; experiment: Adhesion assay on vitronectin, PC3 cells; assay type: cell-based
Description: Human prostate carcinoma cells (PC3) were purchased from American Type Collection Culture (ATCC) and maintained in RPMI supplemented with 10% foetal calf serum, 10 mM L-glutamine, 1% sodium piruvate and 100 units/ml gentamicin.
as §3, §4, §5, §6, §7

[4] = system: bovine microvascular endothelial cells (BMEC) adhesion to Vitronectin; experiment: Adhesion inhibition of BMEC to vitronectin; assay type: cell-based
Description: as §1, §2, §3, §4, §5, §6
The percentages of adhesion inhibition refer to 100 µM concentration of each peptide of and it's calculated by the following formula (control-sample/control×100) where control was RGD untreated sample. […] The t-test has been calculated, using the Mann Witney non parametric test, by the instat program. […]

[5] = system: HMEC cells adhesion to Vitronectin; experiment: Adhesion assay on vitronectin, HMEC cells; assay type: cell-based
Description: as §3, §4, §5
Experiments described were performed in quadruplicate and repeated a minimum of three times.
To asses the ability of ST1646 peptide to compete with vitronectin in adhesion assay also on other cells type, we performed this experiment using microvascular endothelial cells (HMEC), human prostate carcinoma cells (PC3) and murine lung carcinoma cells (M109). Table 6 (a, b and c) show a good activity of the ST1646 peptide in inhibiting adhesion of all cells type. […]
as §7

CC(C)[C@@H]1NC(=O)[C@@H](Cc2ccccc2)NC(=O)[C@H](CC(=O)O)NC(=O)CNC(=O)[C@H](CCCNC(=N)N)NC1=O [KESSLER, cyclo (Arg-Gly-Asp-D-Phe-Val)]
Mean no. of metastases (M109 lung carcinoma): 23 | % Inhibition ([1]; BMEC on fibronectin, 100 μM concentration of each peptide, mean of 4 samples): 30% | IC50 ([1]; BMEC, fibronectin-coated plates, 100 to 0.6 μM tested, ± SD): > 100 µM | % Inhibition ([2]; 1.5 μM peptide): 70% | IC50 ([2]; average of 3 experiments): 0.46 ± 0.5 µM | % Inhibition ([3]; 1.5 μM peptide): 69% | IC50 ([3]; average of 3 experiments): 2.5 ± 0.2 µM | % Inhibition ([4]; BMEC on vitronectin, 100 µM concentration of each peptide, mean of 4 samples): 96% | IC50 ([4]; BMEC, vitronectin-coated plates, 100 to 0.6 μM tested, ± SD): 7.8 ± 1.2 µM | % Inhibition ([5]; 1.5 μM peptide): 39% | IC50 ([5]; average of 3 experiments): 4.23 ± 0.31 µM
